Values after ≈ are worked out from the molar mass of the structure shown. Values joined by “and” are separate entries in the source; they are usually repeats but may differ in a detail not shown here. Equal values may be shown once. Marks after values point to notes of the source that are not given here.
Legend:
[1] = test system: Mannheimia haemolytica MH 10720 (154, BRD field isolate); assay: MIC, broth-microdilution (CLSI VET01-A4); type: cell-based; conditions: strain MH 10720
Procedure, shortened: (§1)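 Read-out is visual: the MIC is the lowest compound concentration at which no turbidity is seen by eye. Trays carried a doubling dilution series, with interpretation following CLSI VET01-S3.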

[2] = test system: Mannheimia haemolytica MH 12587 (1071, BRD field isolate, macrolide-resistance: erm+, E+); assay: MIC, broth-microdilution (CLSI VET01-A4); type: cell-based; conditions: strain MH 12587, macrolide-resistant
Procedure, shortened: as §1

[3] = test system: Mannheimia haemolytica MH 6357 (M7/2, reference strain, cattle infection strain); assay: MIC, broth-microdilution (CLSI VET01-A4); type: cell-based; conditions: strain MH 6357
Procedure, shortened: as §1

[4] = test system: Mannheimia haemolytica MH 6374 (ATCC 33396, reference strain); assay: MIC, broth-microdilution (CLSI VET01-A4); type: cell-based; conditions: strain MH 6374
Procedure, shortened: as §1

[5] = test system: Pasteurella multocida PM 10775 (080130003051, BRD field isolate); assay: MIC, broth-microdilution (CLSI VET01-A4); type: cell-based; conditions: strain PM 10775
Procedure, shortened: as §1

[6] = test system: Pasteurella multocida PM 12080 (IV102277-0093, BRD field isolate); assay: MIC, broth-microdilution (CLSI VET01-A4); type: cell-based; conditions: strain PM 12080
Procedure, shortened: as §1

[7] = test system: Pasteurella multocida PM 6267 (P 2225 (L386), reference strain, mouse infection strain); assay: MIC, broth-microdilution (CLSI VET01-A4); type: cell-based; conditions: strain PM 6267
Procedure, shortened: as §1

[8] = test system: Pasteurella multocida PM 6391 (ATCC 43137, reference strain); assay: MIC, broth-microdilution (CLSI VET01-A4); type: cell-based; conditions: strain PM 6391
Procedure, shortened: as §1

[9] = test system: Acinetobacter baumanii AB 15919 (IV369-2012, dermatitis field isolate); assay: MIC, broth-microdilution (CLSI VET01-A4); type: cell-based; conditions: strain AB 15919
Method: (§2) The Minimum inhibitory concentrations (MIC) of compounds according to the invention were determined by the broth-microdilution method according to CLSI document VET01-A4.
(§3) Microdilution trays containing a doubling dilution series of the test compound were used for the tests.
(§4) The MIC results were interpreted according to the CLSI documents VET01-S3. The lowest concentration of compound at which no visible growth (i.e. no turbidity) detected by the unaided eye was recorded as the MIC.

[10] = test system: Acinetobacter baumanii AB 16496 (ATCC 19606, reference strain); assay: MIC, broth-microdilution (CLSI VET01-A4); type: cell-based; conditions: strain AB 16496
Method: as §2, §3, §4

[11] = test system: Mannheimia haemolytica MH 12180 (KLI-02944, BRD field isolate); assay: MIC, broth-microdilution (CLSI VET01-A4); type: cell-based; conditions: strain MH 12180
Method: as §2, §3, §4

[12] = test system: Pasteurella multocida PM 14426 (0006-439, BRD field isolate, macrolide-resistant); assay: MIC, broth-microdilution (CLSI VET01-A4); type: cell-based; conditions: strain PM 14426, macrolide-resistant
Method: as §2, §3, §4

[13] = test system: Staphylococcus aureus SA 5816 (2139, mastitis field isolate); assay: MIC, broth-microdilution (CLSI VET01-A4); type: cell-based; conditions: strain SA 5816
Method: as §2, §3, §4

[14] = test system: Staphylococcus aureus SA 6114 (ATCC 29213, reference strain); assay: MIC, broth-microdilution (CLSI VET01-A4); type: cell-based; conditions: strain SA 6114
Method: as §2, §3, §4

[15] = test system: 20 isolates of Actinobacillus (A.) pleuropneumoniae; assay: MIC50/MIC90, broth-microdilution, European respiratory tract isolates; type: cell-based
Method: (§5) The in vitro activity of compounds against 20 isolates of Actinobacillus (A.) pleuropneumoniae, 20 of Bordetella (B.) bronchiseptica, 20 of Histophilus (H.) somni, 40 of Mannheimia (M.) haemolytica and 40 of Pasteurella (P.) multocida collected in different European countries were determined. All bacteria were isolated from the respiratory tract of swine and cattle suffering from respiratory disease. All isolates were epidemiologically unrelated as specified by the different suppliers.
(§6) The minimum inhibitory concentrations (MIC) of compounds according to the invention were determined by the broth-microdilution method according to CLSI document VET01-A4.
(§7) Microdilution trays containing a doubling dilution series of the test compounds were used for the tests.
as §4

[16] = test system: 20 isolates of Bordetella (B.) bronchiseptica; assay: as above; type: cell-based
Method: as §5, §6, §7, §4

[17] = test system: 20 isolates of Histophilus (H.) somni; assay: as above; type: cell-based
Method: as §5, §6, §7, §4

[18] = test system: 40 isolates of Mannheimia (M.) haemolytica; assay: as above; type: cell-based
Method: as §5, §6, §7, §4

[19] = test system: 40 isolates of Pasteurella (P.) multocida; assay: as above; type: cell-based
Method: as §5, §6, §7, §4

[20] = test system: M. haemolytica; assay: Mannheimia haemolytica cattle lung infection model, efficacy (Example 10); type: in vivo, cattle calves; conditions: for Food consumption, cumulated for all animals in the group: 3 calves, 10 mg/kg
Method: Unless otherwise described the study was conducted as described in Clinical Example 8
Calves were infected via intratracheal instillation of appr. 300 mL of M. haemolytica PBS suspension containing approximately 4×10^9 CFU M. haemolytica in late log phase on Day 0.
One hour later three animals each were treated with 10 mg/kg of Compound 231(referred to as C. 231) (80 mg/mL in 10% Poloxamer 188), or 10 mg/kg or 5 mg/kg Compound 329 (referred to as C. 329) (150 mg/mL in 35% Cavitron).
The following clinical findings were recorded: The general behavior scores of the animals before (DO am) and after infection with M. haemolytica in the different treated and control groups are indicated in FIG. 8-1: 0=normal; 1=slightly depressive, 2=moderately depressive, 3=highly depressive, 4=recumbency.
The following pathomorphological findings after section on Day 2 were recorded: After measuring the body weight and the lung weight the Lung body mass ratio was calculated as shown in FIG. 8-2. A healthy animal has a lung body mass ration around 1.7 or lower. The area percentage of lung consolidations compared to the total lung tissue and the lung score determined that is a combined score of such percentage of lung consoldiations and the grade. For the “grade” the degree of lung consolidation score was graded from 0 to 3 for each of eight lung lobes: 0 no visible changes, 1 low graded colour changes or induration, 2 medium graded induration, 3 high graded induration, hepatisation, necrosis.
The geometrical means (CFU/g tissue) of bacteriological re-isolations of Mannheimia haemolytica from lung tissue are illustrated in FIG. 8-4.

[21] = Plasma and tissue concentrations in infected calves (Example 10); type: in vivo, cattle calves; conditions: SC single 10 mg/kg (C 231 in 10% Poloxamer 188; C 329 in 35% Cavitron), individual animals and mean
[22] = calves infected with M. haemolytica, SC, single, 10 mg/kg BW

Molecule COCCNCc1ccc(C#Cc2ccc(C(=O)N[C@H](C(=O)NO)[C@@H](C)O)cc2)cc1 [C. 231] has an MIC [1] of 0.5 µg/mL (≈ 1.18 µM), an MIC [2] of 0.5 µg/mL (≈ 1.18 µM) and an MIC [3] of 0.5 µg/mL (≈ 1.18 µM). The MIC [4] was 0.25 µg/mL (≈ 0.588 µM), the MIC [5] was ≤0.016 µg/mL and the MIC [6] was 0.063 µg/mL (≈ 0.148 µM). For the same molecule, the MIC [7] was ≤0.016 µg/mL, the MIC [8] was 0.063 µg/mL (≈ 0.148 µM) and the MIC [9] was >16 µg/mL. For the same molecule, the MIC [10] was >16 µg/mL, the MIC [11] was 0.5 µg/mL (≈ 1.18 µM) and the MIC [12] was 0.032 µg/mL (≈ 0.0752 µM). For the same molecule, the MIC [13] was >16 µg/mL, the MIC [14] was >16 µg/mL and the MIC50 [15] was 0.25 µg/mL (≈ 0.588 µM). The MIC90 [15] was 0.5 µg/mL (≈ 1.18 µM), the MIC50 [16] was >16 µg/mL and the MIC90 [16] was >16 µg/mL. For the same molecule, the MIC50 [17] was 0.125 µg/mL (≈ 0.294 µM), the MIC90 [17] was 0.25 µg/mL (≈ 0.588 µM) and the MIC50 [18] was 0.5 µg/mL (≈ 1.18 µM). The MIC90 [18] was 1 µg/mL (≈ 2.35 µM), the MIC50 [19] was ≤0.016 µg/mL and the MIC90 [19] was 0.063 µg/mL (≈ 0.148 µM). For the same molecule, the “Food consumption, cumulated for all animals in the group” value (from here on “Food consumption, cumulated”) ([20]; D 0 am, after infection and treatment) was 1800** g, the “Food consumption, cumulated” value ([20]; D 0 pm) was 4800 g and the “Food consumption, cumulated” value ([20]; D +1 am) was 4800 g. The “Food consumption, cumulated” value ([20]; D +1 pm) was 4800 g, the “Food consumption, cumulated” value ([20]; D −1 (before infection)) was 4800 g and the “Bacteriological Cure (x of n)” value [20, 22] was 2/3. The “Survival (x of n)” value [20, 22] was 3/3, the “efficacy against an artificial lung infection with M. haemolytica in the calf” value ([20]; tested dosages 10 mg/kg for C 231 and 10 mg/kg and 5 mg/kg for C 329, conclusion in words) was “effective” and the “Concentration, Tissue (48 h) ELF” value [21] was “BLQ”. The “Concentration, Tissue (48 h) Muscle” value [21] was 27 ng/mL, the “Concentration, Plasma 0.5 h” value ([21]; 10 mg/kg) was 1150 ng/mL (2×) and 1320 ng/mL and the “Concentration, Plasma 2 h” value ([21]; 10 mg/kg) was 448 ng/mL and 468 ng/mL and 447 ng/mL. The “Concentration, Plasma 4 h” value ([21]; 10 mg/kg) was 179 ng/mL and 171 ng/mL and 180 ng/mL, the “Concentration, Plasma 6 h” value ([21]; 10 mg/kg) was 83.9 ng/mL and 82.8 ng/mL and 102 ng/mL and the “Concentration, Plasma 24 h” value ([21]; 10 mg/kg) was 6.21 ng/mL and 10.8 ng/mL and 7.47 ng/mL. The “Concentration, Plasma 48 h” value ([21]; 10 mg/kg) was “BLQ and 7.16 ng/mL and 5.74 ng/mL”, the “Concentration, Tissue (48 h) Kidney” value ([21]; 10 mg/kg) was 56 ng/mL and 53.8 ng/mL and 79.3 ng/mL and the “Concentration, Tissue (48 h) Liver” value ([21]; 10 mg/kg) was 48.7 ng/mL and 41.2 ng/mL and 66.9 ng/mL. For the same molecule, the “Concentration, Tissue (48 h) Lung” value ([21]; 10 mg/kg) was 26.6 ng/mL and BLQ and 22.4 ng/mL, the “Concentration, Tissue (48 h) Muscle” value ([21]; 10 mg/kg) was “BLQ” and the “Concentration, Plasma 0 h” value ([21]; predose) was “BLQ”.
